Reference: patent US7935698B2, “Heteroaryl-hydrazone compounds” (Synta Pharmaceuticals Corporation, priority 2003, dated 2011)

What follows are compounds tested on IL-12 production (assay: Human in vitro assay: inhibition of IL-12 production in stimulated human PBMC or THP-1 cells (sandwich ELISA)). Settings: primed with IFNγ and stimulated with LPS or SAC, IL-12 by ELISA.
Type: cell-based
Source text: The biological activities of the compounds of the invention can be evaluated by a number of cell-based assays. One of such assays can be conducted using cells from human peripheral blood mononuclear cells (PBMC) or human monocytic cell line (THP-1). The cells are stimulated with a combination of human interferon-γ (IFNγ) and lipopolysaccharide or a combination of IFNγ and Staphylococcus aureus Cowan I in the presence of a test compound. The level of inhibition of IL-12 production can be measured by determining the amount of p70 by using a sandwich ELISA assay with anti-human IL-12 antibodies. IC50 of the test compound can then be determined. Specifically, PBMC or THP-1 cells are incubated with the test compound. Cell viability was assessed using the bioreduction of MTS [3-(4,5-dimethylthiazol-2-yl)-5-(3-carboxymethoxyphenyl)-2-(4-sulfophenyl)-2H-tetrazolium] (Promega, Madison, Wis.).
Reagents. Staphylococcus aureus Cowan I (SAC) is obtained from Calbiochem (La Jolla, Calif.), and lipopolysaccharide (LPS, Serratia marscencens) is obtained from Sigma (St. Louis, Mo.). Human and mouse recombinant IFNγ are purchased from Boehringer Mannheim (Mannheim, Germany) and Pharmingen (San Diego, Calif.), respectively.
Human In Vitro Assay. Human PBMC were isolated by centrifugation using Ficoll-Paque (Pharmacia Biotech, Uppsala, Sweden) and prepared in RPMI medium supplemented with 10% fetal calf serum (FCS), 100 U/mL penicillin, and 100 μg/mL streptomycin. PBMC were plated in wells of a 96-well plate at a concentration of 5×10^5 cells/well, and primed by adding IFNγ (30 U/mL) for 22 h and stimulated by adding LPS (1 μg/mL), or by adding IFNγ (100 U/mL) and then stimulated by adding SAC (0.01%). A test heteroaryl hydrazone compound was dissolved in DMSO, and added to wells of the 96-well plate. The final DMSO concentration was adjusted to 0.25% in all cultures, including the compound-free control. Human THP-1 cells were plated in wells, primed by adding IFNγ (100 U/mL) for 22 h and stimulated by adding SAC (0.025%) in the presence of different concentrations of the heteroaryl hydrazone compound. Cell-free supernatants were taken 18 h later for measurement of cytokines. Cell viability was assessed using the bioreduction of MTS. Cell survival was estimated by determining the ratio of the absorbance in compound-treated groups versus compound-free control.
The supernatant was assayed for the amount of IL-12p40, IL-12p70, or IL-10 by using a sandwich ELISA with anti-human antibodies, i.e., a Human IL-12 p40 ELISA kit from R&D Systems (Berkeley, Calif.), and a Human IL-12 p70 or IL-10 ELISA kit from Endogen (Cambridge, Mass.). Assays were based on the manufacturer's instructions.
The biological activities of heteroaryl hydrazone compounds were tested on human PBMC or THP-1 cells.

Point of comparison: COc1cccc(NN=Cc2cc(N3CCOCC3)nc(OCCc3ccccn3)n2)c1 [Compound 3, N-(3-Methoxy-phenyl)-N′-[6-morpholin-4-yl-2-(2-pyridin-2-yl-ethoxy)-pyrimidin-4-ylmethylene]-hydrazine], IC50 2.2 nM. Against it:
- Cc1cccc(NN=Cc2cc(N3CCOCC3)nc(OCCc3ccccn3)n2)c1 [Compound 1, N-[6-Morpholin-4-yl-2-(2-pyridin-2-yl-ethoxy)-pyrimidin-4-ylmethylene]-N′-m-tolyl-hydrazine] — the same, 2.2 nM
- Cc1cccc(NN=Cc2cc(OCCc3ccccn3)nc(N3CCOCC3)n2)c1 [Compound 6, N-[2-Morpholin-4-yl-6-(2-pyridin-2-yl-ethoxy)-pyrimidin-4-ylmethylene]-N′-m-tolyl-hydrazine] — 18-fold higher, 40 nM
- Clc1cccc(NN=Cc2cc(N3CCOCC3)nc(OCCc3ccccn3)n2)c1 [Compound 2, N-(3-Chloro-phenyl)-N′-[6-morpholin-4-yl-2-(2-pyridin-2-yl-ethoxy)-pyrimidin-4-ylmethylene]-hydrazine] — 4.5-fold higher, 10 nM
- Cc1ccc(C)c(NN=Cc2cc(N3CCOCC3)nc(OCCc3ccccn3)n2)c1 [Compound 4, N-(2,5-Dimethyl-phenyl)-N′-[6-morpholin-4-yl-2-(2-pyridin-2-yl-ethoxy)-pyrimidin-4-ylmethylene]-hydrazine] — 3-fold higher, 6.5 nM
